Earlier results on 1 molecule are cited in PMC5686165, “Plant-to-plant communication triggered by systemin primes anti-herbivore resistance in tomato” (Scientific Reports, 2017).

The subject of this data set is A. ervi. The conditions noted are these: tomato and A. ervi. On the procedure:
The possible biological relevance of the systemin-triggered priming was evaluated using three different types of source plants. […] The qualitative and quantitative differences in VOCs emissions were confirmed by PLSDA analysis and explain the effect on parasitoid attraction. Compared to R-S4, all receiver plants, after 24 hours of exposition to the t ...

As to `C=C(C)CC(C)CCC` (stereo not shown) [2,4-dimethyl-1-heptene], the “elicitation of indirect defense in inter-specific plant-to-plant communication” value is reported as “powerful elicitor of indirect defense”.
